This note sets out measurements from PubChem BioAssay AID1645864 (Buhrlage Lab, Dana-Farber Cancer Institute and Novartis …, 2021).

Activity calls are given as the source filed them.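 The calls were made as follows: active = maximal inhibition of USP17 at or above 30% in the confirmation dose-response, a value not among the printed readouts; inactive = the rest.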

Chain of Ubiquitin carboxyl-terminal hydrolase 17-like protein 5 (Homo sapiens) (A8MUK1 whole entry, looked up): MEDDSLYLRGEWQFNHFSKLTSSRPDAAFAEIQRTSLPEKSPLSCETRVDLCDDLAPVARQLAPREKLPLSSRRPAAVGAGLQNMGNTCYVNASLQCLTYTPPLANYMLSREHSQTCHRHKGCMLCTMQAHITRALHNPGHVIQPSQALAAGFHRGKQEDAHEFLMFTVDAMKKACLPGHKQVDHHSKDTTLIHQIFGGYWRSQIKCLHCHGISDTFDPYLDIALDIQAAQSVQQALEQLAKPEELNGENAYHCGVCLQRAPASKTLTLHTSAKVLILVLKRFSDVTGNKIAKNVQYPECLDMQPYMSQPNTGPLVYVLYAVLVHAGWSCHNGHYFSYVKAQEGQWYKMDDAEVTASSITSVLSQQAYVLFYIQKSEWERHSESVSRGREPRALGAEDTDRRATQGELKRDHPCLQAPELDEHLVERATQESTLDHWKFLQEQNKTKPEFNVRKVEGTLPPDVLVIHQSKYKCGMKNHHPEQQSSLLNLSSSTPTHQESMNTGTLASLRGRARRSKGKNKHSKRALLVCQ

This assay has as its target Ubiquitin carboxyl-terminal hydrolase 17-like protein 5 (Homo sapiens) (UniProt A8MUK1). Briefly: ubiquitin-specific protease 17 DUB inhibitors, concentration-effect assay, cell-free, verification of initial screening actives (AID 1645864). The conditions noted are these: purified USP17, ubiquitin-rhodamine cleavage fluorescence, 3 h.
On to `Cc1ccc2cc(CNc3ccccc3)c(=O)n(CC(=O)Nc3ccccc3C)c2c1`, for which the half-maximal inhibitory concentration (IC50) (as a rule, the midpoint of a concentration-inhibition curve) was 9.1 µM. For `COc1cccc(NC(=O)c2cnc3c(c2)c(=O)n(C)c(=O)n3C)c1`, the IC50 was 2.34 µM. `Cc1ccc(C)c(NC(=O)CCc2nc(CSc3nc4ccccc4o3)no2)c1`: the IC50 was 33.9 µM. With `CCCC(=O)Nc1nc2ccc(CCC(=O)NCc3ccc(F)cc3)cc2s1`, the half-inhibitory concentration (IC50) was 25 µM. As for `C=C1Nc2ccccc2C(=O)N1c1cccc(NC(=O)c2ccc(C)c(C)c2)c1`, the IC50 was > 50 µM (inactive). With `COc1ccc(-c2nonc2NC(=O)C(c2ccccc2)c2ccccc2)cc1OC` the figure was > 50 µM (inactive). In the case of `CCCCC/C=C/C=C/C(=O)OC1C(O)CC(c2ccc3c(c2O)C(=O)c2c(O)cc4cc(C)cc(O)c4c2C3=O)OC1C` (stereo not given), the IC50 was 0.394 µM. `Cc1sc2ncn3c(=O)n(CC(=O)Nc4ccc(F)c(Cl)c4)nc3c2c1C`: the IC50 was 2.82 µM.

On to `CCOc1ccccc1NC(=O)Cn1c(=O)n(CCCC(=O)NCc2ccc(C)cc2)c(=O)c2sccc21`, for which the 50% inhibitory concentration (IC50) was 2.71 µM. With `COc1ccc(-c2cc(-c3ccccc3)nc(SCC(N)=O)c2C#N)cc1OC`, the IC50 was 1.61 µM. With `CCn1c(=O)c2ccccc2n(Cc2nc(-c3ccccc3OC)no2)c1=O`, the IC50 is > 50 µM (inactive). Turning to `COc1cc(O)c2c(=O)c(-c3ccc(O)cc3)coc2c1`, the IC50 was 15.4 µM. `COc1cccc(/C=C/C(=O)Nc2ccc(C)c(Cl)c2)c1`: the IC50 was 43.4 µM.

With `Cc1nc(-c2ccccc2F)sc1C(=O)Nc1cccnc1`, the IC50 was 35.6 µM. For the compound `CN(C)c1ccc(/C=N/NC(=O)c2ccc(Cl)cc2)cc1`, the IC50 was 6.27 µM.

On to `O=C(Nc1cc(F)ccc1F)c1ccn(COc2ccc(F)c(Cl)c2)n1`, for which the IC50 is 38.4 µM.

For `Cc1nc(C(=O)NC2(O)C(=O)c3ccccc3C2=O)cs1`, the IC50 is 2.06 µM. As for `Cc1c(S(=O)(=O)NC2CCCCNC2=O)sc2ccc(Cl)cc12` (stereo not given), the IC50 is 43.1 µM. Regarding `Cc1ccc(NC(=O)Cn2c(Nc3cccc(C)c3)nc(C)cc2=O)cc1`, the IC50 is 42.1 µM. Turning to `O=C(CN1C=NC2=NS(=O)(=O)c3ccccc3N21)Nc1cc(F)ccc1F`, the IC50 was 33.4 µM. Consider `O=C(c1cnccn1)N1CCc2[nH]c3ccc(F)cc3c2C1`, for which the IC50 was > 50 µM (inactive). Take `CC(=O)c1ccc(NC(=O)c2ccc(N3CCCCS3(=O)=O)cc2Cl)cc1`: the IC50 was 30.6 µM. On to `Cc1ccc2oc(=O)c(S(=O)(=O)N3CCCCC3)cc2c1`, for which the IC50 was 16.4 µM. Consider `CCc1noc(-c2ccc(OCC(=O)Nc3ccc(C)cc3C)cc2)n1`, for which the IC50 was 30.5 µM.

`COc1ccc2c(c1)CCc1c(C(=O)NCc3cccnc3)noc1-2`: the IC50 was 25.2 µM.

With `CCOc1ccc(NC(=O)COc2cccc(-n3cnnn3)c2)cc1`, the IC50 is > 50 µM (inactive). Regarding `COc1ccc(/C=C/c2ccnc3nc(-n4cccc4)nn23)cc1`, the IC50 is > 50 µM (inactive). As to `O=C(Nc1ccc(F)cc1)Nc1ccccc1OCc1cc(=O)n2ccccc2n1`, the IC50 was 28.7 µM.

As to `Cc1cc(NC(=O)c2cc(-c3cccnc3)n[nH]2)ccc1Br`, the IC50 was 1.95 µM. With `Cc1cc(C(F)(F)F)n(-c2ccc(NC(=O)Nc3cccc(C(F)(F)F)c3)cc2)n1` the figure was 15.4 µM; with `N#Cc1ccccc1Cn1c(=O)n(CCCCC(=O)NCCc2ccccc2)c(=O)c2ccccc21`, 10 µM; with `CN1CCC(N(C)S(=O)(=O)c2ccc(NC(=O)c3cccc(OCc4ccccc4)c3)cc2)CC1`, > 50 µM (inactive). With `Cc1ccc(N2CC(c3nc4ccccc4n3CCCCOc3ccccc3)CC2=O)cc1` (stereo not given) the figure was > 50 µM (inactive). Consider `CC(C)N(C(=O)Cn1c(=O)[nH]c2ccccc21)c1ccccc1`, for which the IC50 was > 50 µM (inactive). `Cc1ccc(NC(=O)Cc2nnc3c(-c4nc(C5CC5)no4)cccn23)cc1`: the IC50 was 4.85 µM. For the compound `Cc1ccc2c(c1)N(C)C(=O)c1cc(NC(=O)c3ccc(F)cc3)ccc1O2`, the IC50 was 2.03 µM.

With `CCCc1nc2sc3c(N(CC)CC)ncnc3c2c2c1CCC2`, the IC50 is > 50 µM (inactive).

For the compound `Cc1nn(C)c2c1[C@@H](c1ccc(F)c(Br)c1)[C@H](NC(=O)c1ccccc1)C(=O)N2`, the IC50 was > 50 µM (inactive). For `CCOC(=O)c1ccc(NC(=O)c2cnc(N3CCOCC3)nc2)cc1`, the IC50 was > 5 µM (inactive). In the case of `CC(C)Cc1cc(-c2nnc3sc(-c4ccco4)nn23)n[nH]1`, the IC50 is > 50 µM (inactive). On to `CC1CCCN(S(=O)(=O)c2cc3cc(F)ccc3oc2=O)C1` (stereo not given), for which the IC50 was 31.1 µM. As for `CCC1OC(O)(C(C)C(O)C(C)C2OC(=O)/C(C)=C/C(C)=CC(C)C(O)C(C)C/C(C)=C/C=C/C2OC)CC(OC(=O)/C=C/C(=O)NC2=C(O)CCC2=O)C1C` (stereo not given), the IC50 was > 50 µM (inactive). For the compound `O=C(Cc1cccs1)Nc1cc(F)c2nc(N3CCOCC3)ccc2c1`, the IC50 was 31.2 µM. `O=C(c1cc(-c2ccc(Cl)cc2)n[nH]1)N1CCN(C(=O)c2ccco2)CC1`: the IC50 is 32.2 µM. Take `CCC(=O)Nc1ccc2c(c1)nc(CSc1nccc(C)n1)n2CC`: the IC50 is > 50 µM (inactive). In the case of `O=C(COc1cc([N+](=O)[O-])cc2cccnc12)NCCC1=CCCCC1`, the IC50 is 23.5 µM.

With `N#Cc1cccc(NC(=O)Cn2cccc(-c3nc(-c4ccccc4)no3)c2=O)c1`, the IC50 was > 50 µM (inactive). With `CC(OC(=O)c1ccc2c(c1)OCCO2)C(=O)NCC1CCCCC1` (stereo not given), the IC50 was 30.1 µM. Consider `Cc1sc(NC(=O)/C=C/c2ccco2)nc1-c1ccccc1`, for which the IC50 is > 50 µM (inactive). `O=C(CCCC(=O)c1ccccc1)Nc1ccc(F)cc1`: the IC50 was 29.7 µM.

`COc1ccc(NC(=O)C2CC(=O)Nc3c(-c4ccc(Cl)cc4)cnn32)c(OC)c1` (stereo not given): the IC50 is 9.36 µM. With `COc1ccccc1CNC(=O)C1CCCN(c2nc3ccsc3c(=O)s2)C1` (stereo not given) the figure was 4.2 µM; with `COc1ccc(-c2cnnn2-c2ccc(NC(=O)c3c(F)cccc3F)cc2)cc1OC`, > 50 µM (inactive); with `CN1C(=O)COc2ccc(NC(=O)c3cc(-c4ccccc4)on3)cc21`, 9.45 µM. Consider `Cc1[nH]nc(NC(=O)C2COc3ccccc3O2)c1-c1ccccc1` (stereo not given), for which the IC50 was 34.7 µM. On to `O=C(NCc1cccnc1)c1cnn2c(C(F)(F)F)cc(-c3ccc(F)cc3)nc12`, for which the concentration for half-maximal inhibition (IC50) is 27.7 µM. Consider `Cc1cc(O)cc2cc3c(c(O)c12)C(=O)CCC3O` (stereo not given), for which the IC50 is > 50 µM (inactive). `COC(=O)c1ccc(C(=O)Nc2cc3ccccc3cc2NC(=O)c2ccc(C(=O)OC)cc2)cc1`: the IC50 is 0.68 µM. With `O=C(NCc1cccnc1)C1CCN(c2cnc(N3CCCCCC3)nc2)CC1` the figure was > 50 µM (inactive); with `COc1ccc(-c2cc3nc(C)cc(Nc4ccc(F)cc4)n3n2)cc1OC`, > 50 µM (inactive). With `COc1ccc(C2CC(=O)Nc3n[nH]c(-c4ccccc4)c32)cc1OC` (stereo not given) the figure was 29.7 µM; with `COc1cccc(C(=O)NCC(=O)Nc2nc3ccccc3[nH]2)c1`, 38.6 µM. In the case of `Cc1nnc(NCc2cccnc2)c2c1nnn2Cc1ccccc1Cl`, the IC50 is 34 µM.

In the case of `CCOc1ccc(CCNC(=O)CCC(=O)Nc2ccc3nc(N4CCN(C)CC4)cc(C)c3c2)cc1OCC`, the IC50 was > 50 µM (inactive). For `Cc1cccc(NC(=O)Cn2c(=O)n(Cc3ccc(F)cc3)c(=O)c3sccc32)c1`, the IC50 is 5.8 µM.
